# Assays:
# [1] = test system: CGS21680-induced catalepsy; assay: Effect on CGS21680-induced catalepsy; type: in vivo, male ddY mice; settings: mice; 10 mg/kg orally 30 minutes before i.c.v. CGS21680 10 μg/20 μL; scored 1 hour after administration; 80% or more judged active
# Protocol: Parkinson's disease is motor dysfunction based on the degeneration and cell death of the nigrostriatal dopaminergic neuron. […] Therefore, it is considered that the adenosine A2A receptor functions to promote the output of GABAergic neurons from the corpus striatum into the external segment of globus pallidus, and as a result, catalepsy is induced by the administration of CGS21680.
# The experiment was carried out using 10 male ddY mice of 5 weeks of age (body weight, 22 to 25 g, by Nippon SLC) per group. CGS21680 (by Kyowa Hakko Kogyo) was dissolved in physiological saline (by Otsuka Pharmaceutical), and intracerebroventricularly injected to the mice in an amount of 10 μg/20 μL. The test compound was used by being suspended in distilled water containing 0.5 w/v % methyl cellulose 400 cP (hereinafter abbreviated as MC) (by Otsuka Pharmaceutical). […] At 1 hour after the administration of the test compound, the degree of catalepsy was measured with respect to each of the mice such that a pair of only forelimbs and a pair of only hindlimbs of each mouse were placed by turns on a vertically installed acrylic stand with a height of 4.5 cm and a width of 1.0 cm. […]
# The catalepsy remission rate was calculated according to the following equation. […]
# [2] = target: T1, Rat adenosine A2A receptor (Rattus norvegicus, UniProt P30543); assay: Adenosine A2A receptor binding test (3H-CGS21680 binding, rat corpus striatum membranes); settings: test compound 10^−7 mol/L, 25° C., 120 minutes, read-out: Rat adenosine A2A receptor binding inhibition rate (%) (10^−7 mol/L)
# T1 construct: tissue Nippon SLC (animals); host or cells: rat (SD) corpus striatum membrane preparation
# T1 sequence (P30543 whole entry): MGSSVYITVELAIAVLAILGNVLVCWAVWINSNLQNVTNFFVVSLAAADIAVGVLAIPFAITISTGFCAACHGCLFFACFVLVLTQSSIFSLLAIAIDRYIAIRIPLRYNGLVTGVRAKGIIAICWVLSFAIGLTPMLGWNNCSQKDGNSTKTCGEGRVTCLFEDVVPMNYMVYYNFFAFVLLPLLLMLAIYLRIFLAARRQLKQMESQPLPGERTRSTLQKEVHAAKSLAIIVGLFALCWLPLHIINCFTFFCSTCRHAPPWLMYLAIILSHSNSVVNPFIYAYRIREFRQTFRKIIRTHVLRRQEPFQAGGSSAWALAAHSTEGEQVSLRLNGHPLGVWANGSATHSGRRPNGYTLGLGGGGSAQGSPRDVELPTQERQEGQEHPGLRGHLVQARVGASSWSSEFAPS
# Protocol: This test was carried out in a similar manner to a Bruns et al's method (Molecular Pharmacology, Vol. 29, p. 331, 1986).
# Corpus striatum of a rat (SD rat, by Nippon SLC) was suspended in 50 mL of an ice-cooled 50 mmol/L tris(hydroxymethyl)aminomethane hydrochloride (Tris-HCl) buffer (pH 7.7) using a polytron homogenizer (by Kinematica). The resulting suspension was centrifuged (48,000×g, 20 minutes), and the resulting precipitate was resuspended by adding the same amount of a 50 mmol/L Tris-HCl buffer, followed by centrifugation under the same condition. The resulting final precipitate was suspended by adding a 50 mmol/L Tris-HCl buffer [containing 10 mmol/L magnesium chloride, adenosine deaminase 0.02 units/mg tissue (by Sigma)] thereto so that the tissue concentration was 5 mg (wet weight)/mL.
# To 100 μl, of the above purified cell suspension, 80 μL (final concentration: […]) of tritium-labeled CGS-21680 {^3H-2-[p-(2-carboxyethyl)phenethylamino]-5′-(N-ethylcarboxamido)-adenosine: 40 curies/mmol: by New England Nuclear [The Journal of Pharmacology and Experimental Therapeutics, Vol. 251, p. 888, 1989]) and 20 μL of a test compound solution (10^−7 mol/L; a solution of a test compound in DMSO was diluted with a Tris-HCl buffer) were added. The resulting mixture was allowed to stand at 25° C. for 120 minutes, followed by rapid suction filtration through a glass fiber paper filter (GF/C; by Whatman). The filter was immediately washed three times with 200 μL of an ice-cooled 50 mmol/L Tris-HCl buffer. The glass fiber paper filter was transferred into a vial, Microscinti (by Perkin Elmer) was added thereto, and the radioactivity level was measured with Topcount (by Perkin Elmer).
# The inhibition rate of the test compound to the adenosine A2A receptor binding (3H-CGS21680 binding) was calculated according to the following equation.
# Inhibition rate (%)={1−[(Amount of binding in the presence of compound)−(Amount of non-specific binding)]/[(Amount of total binding)−(Amount of non-specific binding)]}×100
# Amount of total binding means the ^3H-CGS21680 binding radioactivity content in the absence of the test compound. Amount of non-specific binding means the ^3H-CGS21680 binding radioactivity content in the presence of 100 μmol/L cyclopentyladenosine (CPA; by Sigma). Amount of binding in the presence of compound means the ^3H-CGS21680 binding radioactivity content in the presence of 10^−7 mol/L, of the test compound.
inhibition at 0.1 µM [2],melting point,SMILES,catalepsy remission rate [1]
81%,–,"O=C(c1sc(-c2nc3cnccc3[nH]2)nc1-c1ccco1)C1CCOCC1 [Compound 18, 4-(2-Furyl)-2-(imidazo[4,5-c]pyridin-2-yl)thiazol-5-yl tetrahydropyran-4-yl ketone]",–
63%,178 to 180 °C,"COc1ccc(-c2c[nH]c(-c3nc(-c4ccco4)c(C(=O)C4CCOCC4)s3)n2)cc1 [Compound 19, 4-(2-Furyl)-2-[4-(4-methoxyphenyl)imidazol-2-yl]thiazol-5-yl tetrahydropyran-4-yl ketone]",–
94%,–,"O=C(c1ccccn1)c1sc(-c2nc3ccccc3[nH]2)nc1-c1ccco1 [Compound 24, 4-(2-Furyl)-5-(pyridin-2 ylcarbonyl)-2-(2-benzimidazolyl)thiazole]",–
90%,–,"O=C(c1ccccn1)c1sc(-c2nc3c([nH]2)CSCC3)nc1-c1ccco1 [Compound 29, 4-(2-Furyl)-5-(pyridin-2-ylcarbonyl)-2-(3,4,6,7-tetrahydrothiopyrano[3,4-d]imidazol-2-yl)thiazole]",–

# Continued, compound first:
SMILES,inhibition at 0.1 µM [2],melting point,catalepsy remission rate [1]
"O=C(c1sc(-c2nc3ncccc3[nH]2)nc1-c1ccco1)C1CCOCC1 [Compound 17, 4-(2-Furyl)-2-(imidazo[4,5-b]pyridin-2-yl)thiazol-5-yl tetrahydropyran-4-yl ketone]",–,–,100%
"O=C(Nc1ccccc1)c1nc(-c2ccco2)c(C(=O)C2CCOCC2)s1 [Compound 32, 4-(2 Furyl)-5-(tetrahydropyran-4-ylcarbonyl)thiazol-2-carboxylic acid phenylamide]",26%,–,–
"CC(C)CNC(=O)c1nc(-c2ccco2)c(C(=O)C2CCOCC2)s1 [Compound 33, 4-(2-Furyl)-5-(tetrahydropyran-4-ylcarbonyl)thiazol-2-carboxylic acid isobutylamide]",50%,–,–

# Source: US20100280023A1, “THIAZOLE DERIVATIVES” (KYOWA HAKKO KOGYO CO., LTD., priority 2005, published 2010)
